“Also recorded” adds a separate entry of the source.
Tests used:
[1] = tested on: myotubes; test: Differentiated (starved) cultured myotubes: Atrogin1 expression and diameter; assay type: cell-based, mouse; conditions: starved (24 hr) or non-starved myotubes; PGE2 10 ng/ml, SW 1 μM; listed as SW
Experimental: For myotubes we performed fixation using 4% PFA, blocking and permeabilization using PBS/1% BSA/0.1% Triton X-100 and staining with primary antibodies anti-MyHC (Thermo Fisher Scientific, catalog #14-6503-82, clone MF-20, 1:500) and then with AlexaFluor secondary Antibodies (Jackson ImmunoResearch Laboratories, 1:500). We counterstained nuclei with DAPI (Invitrogen).
Primary myoblasts were grown in myogenic cell culture medium containing DMEM/F10 (50:50), 15% FBS, 2.5 ng ml-1 fibroblast growth factor-2 and 1% penicillin-streptomycin. For differentiation experiments, confluent myoblasts were grown in medium containing 5% horse serum, DMEM. […] Myoblasts were isolated from EP4^fl/fl mice and received either a mCherry/Cre lentivirus or a mock infection as previously described (5).
For cultured myotubes we performed fixation using 4% PFA, blocking and permeabilization using PBS/1% BSA/0.1% Triton X-100 and staining with primary antibodies anti-MYH (Thermo Fisher Scientific, catalog #14-6503-82, clone MF-20, 1:500) and then with AlexaFluor secondary Antibodies (Jackson ImmunoResearch Laboratories, 1:500). We counterstained nuclei with DAPI (Invitrogen). We acquired images using the KEYENCE BZ-X700 all-in-one fluorescence microscope (Keyence) with 20x/0.75 N.A. objectives. We analyzed the fiber area using the Keyence Advanced Analysis Software. For fiber area the entire maximum cross-sectional area of the muscle was quantified or at least 10 fields of LAMININ or WGA stained myofiber cross-sections encompassing over 400 myofibers were captured for each mouse as above. For fiber typing analysis, the MATLAB application SMASH-Semi-Automatic Muscle Analysis Using Segmentation of Histology, was used as previously described (12). Data analyses were blinded. The researchers performing the imaging acquisition and scoring were unaware of treatment condition given to sample groups analyzed.
Primary murine myoblasts were grown in myogenic cell culture medium containing DMEM/F10 (50:50), 15% FBS, 2.5 ng ml^−1 fibroblast growth factor-2 and 1% penicillin-streptomycin. […] For differentiation experiments, confluent myoblasts were grown in medium containing 5% horse serum, DMEM.

[2] = Muscle mass, plantar flexion tetanic force and treadmill endurance in aged and young C57BL/6 mice; assay type: in vivo, mouse; conditions: young mice, daily i.p., 1 month
Text: (§1) We performed all experiments and protocols in compliance with the institutional guidelines of Stanford University and Administrative Panel on Laboratory Animal Care (APLAC). Mid (18 mo.) and aged (>24 mo.) mice C57BL/6 were obtained the US National Institute on Aging (NIA) for aged muscle studies, and young (2-4 mo.) wild-type C57BL/6 mice from Jackson Laboratory. Mice were maintained in specific-pathogen free housing on a 12-hour dark/light cycle for study duration.
(§2) Time and distance to exhaustion was performed as previously described (4) for SW-treated mice and their controls (FIG. 3A).
(§3) The peak isometric torque (N·mm) of the ankle plantarflexors was assessed as previously described (8,9). Briefly, the foot of anesthetized mice was placed on a footplate attached to a servomotor (model 300C-LR; Aurora Scientific). Two Pt-Ir electrode needles (Aurora Scientific) were inserted percutaneously were inserted subcutaneously over the tibial nerve, just posterior/posterior-medial to the knee. The ankle joint was secured at a 90° angle. The peak isometric torque was achieved by varying the current delivered to the tibial nerve at a frequency of 200 Hz and a 0.1-ms square wave pulse. We performed three tetanic measurements on each muscle, with 1 min recovery between each measurement. Data were collected with the Aurora Scientific Dynamic Muscle Data Acquisition and Analysis Software.
(§4) We performed all experiments and protocols in compliance with the institutional guidelines of Stanford University and Administrative Panel on Laboratory Animal Care (APLAC). Middle aged (18-20 mo.) and aged (>24 mo.) mice C57BL/6 were obtained the US National Institute on Aging (NIA) for aged muscle studies, and young (2-4 mo.) wild-type C57BL/6 mice from Jackson Laboratory. INK-ATTAC mice were generated as previously described (1). INK-ATTAC healthspan assessments. INK-ATTAC mice were crossed onto the C57BL6/J genetic background and maintained in specific-pathogen free housing on a 12-hour dark/light cycle for study duration. At 12 months of age, male mice were either utilized for baseline healthspan assessments and terminal muscle harvest or randomized to receive twice-weekly vehicle or AP20187 (2 mg/kg intraperitoneal injection; B/B homodimerizer, Clontech) until assessment and sacrifice at 28 months of age (2). […] Time and distance to exhaustion was performed as previously described (4) for SW-treated mice and their controls. […]
as §3, with “described (21, 22).” for “described (8,9).”, “percutaneously and” for “percutaneously were inserted”, “a 0.1—ms” for “a 0.1-ms”

[3] = tested on: aged mice; test: as above; assay type: in vivo, mouse; conditions: aged (>24 mo) mice, daily i.p. 5 mg/kg, 1 month, 5 mg/kg
Text: as §1, §2, §3, §4
as §3, with “described (21, 22).” for “described (8,9).”, “percutaneously and” for “percutaneously were inserted”, “a 0.1—ms” for “a 0.1-ms”

[4] = tested on: bone marrow, colon, lung, and liver; conditions: cited from earlier work

**Q.** For `CCCC[S+]([O-])c1sc2nc(-c3cccs3)cc(-c3ccccc3)c2c1N` (stereo not shown) [SW033291, 2-(butylsulfinyl)-4-phenyl-6-(thiophen-2-yl)thieno[2,3-b]pyridin-3-amine], which myotube diameter [1] is on record?
**A.** Its myotube diameter is “no increase; also recorded: no effect”.

**Q.** What about the absolute strength [2] of the same compound?
**A.** The absolute strength was “not statistically significant”.

**Q.** And the muscle mass [2]?
**A.** Its muscle mass is “not statistically significant”.

**Q.** What about the “endurance (time to exhaustion on a treadmill)” value [3] of the same compound?
**A.** The value was “increases; also recorded: significant increase”.

**Q.** What about the “muscle mass (weight of dissected GA, TA, soleus)” value [3] of the same compound?
**A.** Its value is “increases; also recorded: significant increase”.

**Q.** What about the “muscle strength (plantar flexion tetanic force)” value [3] of the same compound?
**A.** The value was “increases; also recorded: significant increase”.

**Q.** What about the “endurance (time to exhaustion on a treadmill)” value ([3]; listed as SW) of the same compound?
**A.** The value was “increased”.

**Q.** And the “muscle mass (weight of dissected GA, TA, soleus)” value ([3]; listed as SW)?
**A.** Its value is “significant increase”.

**Q.** What about the “muscle strength (plantar flexion tetanic force)” value ([3]; listed as SW) of the same compound?
**A.** Its value is “significant increase”.

**Q.** What about the “increase of PGE2 levels in vivo” value [4] of the same compound?
**A.** The value was 2 fold.

Source: US20220304992A1, “METHODS OF REJUVENATING AGED TISSUE BY INHIBITING 15-HYDROXYPROSTAGLANDIN DEHYDROGENASE (15-PGDH)” (The Board of Trustees of the Leland Stanford Junior …, priority 2019, published 2022)
